By IC50 is commonly meant the midpoint of a concentration-inhibition curve.

From ChEMBL document CHEMBL1157737, “Natural ortho-dihydroxyisoflavone derivatives from aged Korean fermented soybean paste as potent tyrosinase and melanin formation inhibitors” (Bioorg Med Chem Lett, 2010) come the findings set out here.

Each structure is given as a SMILES string. Where only a bound is given, the exact number is not on record here.

In assay [1] the test system is Melan-a. The assay is described as follows: Inhibition of melanin formation in mouse Melan-a cells after 5 days by ELISA. Format: functional, cell-based. The conditions noted are these: 120 h.
Assay [2] in a line: Antioxidant activity assessed as superoxide radical scavenging activity after 2 mins by NBT reduction assay. Format: functional.
Assay [3] concerns the target T1, Tyrosinase (Mus musculus, UniProt P11344).
T1 sequence (P11344 whole entry): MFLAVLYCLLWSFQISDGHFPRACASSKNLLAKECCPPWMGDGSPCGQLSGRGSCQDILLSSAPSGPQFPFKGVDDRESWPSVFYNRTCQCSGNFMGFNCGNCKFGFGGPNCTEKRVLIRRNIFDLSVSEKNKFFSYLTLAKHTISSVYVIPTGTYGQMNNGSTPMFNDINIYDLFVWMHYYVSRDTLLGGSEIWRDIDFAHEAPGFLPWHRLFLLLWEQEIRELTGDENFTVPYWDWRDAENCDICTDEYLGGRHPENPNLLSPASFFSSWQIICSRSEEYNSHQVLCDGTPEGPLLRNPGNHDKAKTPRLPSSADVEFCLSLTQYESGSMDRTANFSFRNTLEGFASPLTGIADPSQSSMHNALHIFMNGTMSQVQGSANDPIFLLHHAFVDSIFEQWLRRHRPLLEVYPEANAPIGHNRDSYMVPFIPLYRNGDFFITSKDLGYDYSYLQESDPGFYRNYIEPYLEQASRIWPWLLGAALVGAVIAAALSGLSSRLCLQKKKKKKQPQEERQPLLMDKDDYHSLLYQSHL
The assay is described as follows: Inhibition of tyrosinase in mouse Melan-a cells by ELISA. Format: cell-based. (An ELISA detects its analyte on a solid surface through an enzyme-linked reagent.)

Turning to `COc1cc2c(=O)c(-c3ccc(O)cc3)coc2cc1O` [GLYCITEIN], the half-inhibitory concentration (IC50) in assay [1], in assay [2] and in assay [3] was more than 500 µM throughout.

With `O=c1c(-c2ccc(O)c(O)c2)coc2cc(O)ccc12`, the IC50 in assay [1] is 7.83 µM; in assay [2] it was 10.5 µM; in assay [3] it was 5.23 µM.

With `O=C1O[C@H]([C@@H](O)CO)C(O)=C1O` [ASCORBIC ACID], in assay [2], the half-maximal inhibitory concentration (IC50) was 65.1 µM.

As to `O=c1c(-c2ccc(O)cc2)coc2c(O)c(O)ccc12`, the half-inhibitory concentration (IC50) in assay [1] came to 12.2 µM; in assay [2], 18.1 µM; in assay [3], 11.2 µM.

As to `O=c1c(-c2ccc(O)cc2)coc2cc(O)cc(O)c12` [GENISTEIN], the IC50 was 57.8 µM in assay [1], 489 µM in assay [2] and more than 500 µM in assay [3].

Consider `OC[C@H]1O[C@@H](Oc2ccc(O)cc2)[C@H](O)[C@@H](O)[C@@H]1O` [ARBUTIN], for which half-maximal inhibition in assay [1] (IC50) required 98 µM.

Take `O=c1c(-c2ccc(O)cc2)coc2cc(O)ccc12` [DAIDZEIN]: the IC50 in assay [1], in assay [2] and in assay [3] was more than 500 µM each time.

As for `O=c1c(-c2ccc(O)cc2)coc2cc(O)c(O)cc12`, the concentration for half-maximal inhibition (IC50) in assay [1], in assay [2] and in assay [3] was more than 500 µM throughout.
